{
  "source": "ChEMBL document CHEMBL1153245",
  "about": "“A profile of the in vitro anti-tumor activity of imidazolium-based ionic liquids” (2010)",
  "format_in_all_cases": "functional",
  "key": {"HCT-15": {"tested_on": "HCT-15", "assay": "Anticancer activity against human HCT15 cells after 48 hrs by sulforhodamine B assay", "conditions": "Homo sapiens, HCT-15, 48 h"}, "SNB-19": {"tested_on": "SNB-19", "assay": "Anticancer activity against human SNB19 cells after 48 hrs by sulforhodamine B assay", "conditions": "Homo sapiens, SNB-19, 48 h"}, "PC-3": {"tested_on": "PC-3", "assay": "Anticancer activity against human PC3 cells after 48 hrs by sulforhodamine B assay", "conditions": "Homo sapiens, PC-3, 48 h"}, "[1]": {"assay": "Anticancer activity against human […] cells after 48 hrs by sulforhodamine B assay", "conditions": "Homo sapiens, RPMI8266, 48 h"}, "MDA-MB-435": {"tested_on": "MDA-MB-435", "assay": "Anticancer activity against human MDA-MB-435 cells after 48 hrs by sulforhodamine B assay", "conditions": "Homo sapiens, MDA-MB-435, 48 h"}, "SF-268": {"tested_on": "SF-268", "assay": "Anticancer activity against human SF268 cells after 48 hrs by sulforhodamine B assay", "conditions": "Homo sapiens, SF-268, 48 h"}, "M14": {"tested_on": "M14", "assay": "Anticancer activity against human M14 cells after 48 hrs by sulforhodamine B assay", "conditions": "Homo sapiens, M14, 48 h"}, "NCI-H522": {"tested_on": "NCI-H522", "assay": "Anticancer activity against human NCI-H522 cells after 48 hrs by sulforhodamine B assay", "conditions": "Homo sapiens, NCI-H522, 48 h"}, "SK-MEL-5": {"tested_on": "SK-MEL-5", "assay": "Anticancer activity against human SK-MEL-5 cells after 48 hrs by sulforhodamine B assay", "conditions": "Homo sapiens, SK-MEL-5, 48 h"}, "COLO 205": {"tested_on": "COLO 205", "assay": "Anticancer activity against human COLO205 cells after 48 hrs by sulforhodamine B assay", "conditions": "Homo sapiens, COLO 205, 48 h"}, "SK-OV-3": {"tested_on": "SK-OV-3", "assay": "Anticancer activity against human SKOV3 cells after 48 hrs by sulforhodamine B assay", "conditions": "Homo sapiens, SK-OV-3, 48 h"}, "UACC-257": {"tested_on": "UACC-257", "assay": "Anticancer activity against human UACC257 cells after 48 hrs by sulforhodamine B assay", "conditions": "Homo sapiens, UACC-257, 48 h"}, "Malme-3M": {"tested_on": "Malme-3M", "assay": "Anticancer activity against human MALME-3M cells after 48 hrs by sulforhodamine B assay", "conditions": "Homo sapiens, Malme-3M, 48 h"}, "K562": {"tested_on": "K562", "assay": "Anticancer activity against human K562 cells after 48 hrs by sulforhodamine B assay", "conditions": "Homo sapiens, K562, 48 h"}, "A549": {"tested_on": "A549", "assay": "Anticancer activity against human A549 cells after 48 hrs by sulforhodamine B assay", "conditions": "Homo sapiens, A549, 48 h"}, "A498": {"tested_on": "A498", "assay": "Anticancer activity against human A498 cells after 48 hrs by sulforhodamine B assay", "conditions": "Homo sapiens, A498, 48 h"}, "[2]": {"assay": "Anticancer activity against human Hs 578T cells after 48 hrs by sulforhodamine B assay", "conditions": "Homo sapiens, Hs-578T, 48 h"}, "HCC 2998": {"tested_on": "HCC 2998", "assay": "Anticancer activity against human HCC2998 cells after 48 hrs by sulforhodamine B assay", "conditions": "Homo sapiens, HCC 2998, 48 h"}, "T47D": {"tested_on": "T47D", "assay": "Anticancer activity against human T47D cells after 48 hrs by sulforhodamine B assay", "conditions": "Homo sapiens, T47D, 48 h"}, "HCT-116": {"tested_on": "HCT-116", "assay": "Anticancer activity against human HCT116 cells after 48 hrs by sulforhodamine B assay", "conditions": "Homo sapiens, HCT-116, 48 h"}, "SK-MEL-28": {"tested_on": "SK-MEL-28", "assay": "Anticancer activity against human SK-MEL-28 cells after 48 hrs by sulforhodamine B assay", "conditions": "Homo sapiens, SK-MEL-28, 48 h"}, "HOP-62": {"tested_on": "HOP-62", "assay": "Anticancer activity against human HOP62 cells after 48 hrs by sulforhodamine B assay", "conditions": "Homo sapiens, HOP-62, 48 h"}, "MDA-MB-468": {"tested_on": "MDA-MB-468", "assay": "Anticancer activity against human MDA-MB-468 cells after 48 hrs by sulforhodamine B assay", "conditions": "Homo sapiens, MDA-MB-468, 48 h"}, "SR": {"tested_on": "SR", "assay": "Anticancer activity against human SR cells after 48 hrs by sulforhodamine B assay", "conditions": "Homo sapiens, SR, 48 h"}, "TK-10": {"tested_on": "TK-10", "assay": "Anticancer activity against human TK10 cells after 48 hrs by sulforhodamine B assay", "conditions": "Homo sapiens, TK-10, 48 h"}, "NCI-H226": {"tested_on": "NCI-H226", "assay": "Anticancer activity against human NCI-H226 cells after 48 hrs by sulforhodamine B assay", "conditions": "Homo sapiens, NCI-H226, 48 h"}, "MOLT-4": {"tested_on": "MOLT-4", "assay": "Anticancer activity against human MOLT4 cells after 48 hrs by sulforhodamine B assay", "conditions": "Homo sapiens, MOLT-4, 48 h"}, "IGROV-1": {"tested_on": "IGROV-1", "assay": "Anticancer activity against human IGROV1 cells after 48 hrs by sulforhodamine B assay", "conditions": "IGROV-1, 48 h"}, "OVCAR-5": {"tested_on": "OVCAR-5", "assay": "Anticancer activity against human OVCAR5 cells after 48 hrs by sulforhodamine B assay", "conditions": "Homo sapiens, OVCAR-5, 48 h"}, "SF-539": {"tested_on": "SF-539", "assay": "Anticancer activity against human SF539 cells after 48 hrs by sulforhodamine B assay", "conditions": "Homo sapiens, SF-539, 48 h"}, "RXF 393": {"tested_on": "RXF 393", "assay": "Anticancer activity against human RXF393 cells after 48 hrs by sulforhodamine B assay", "conditions": "Homo sapiens, RXF 393, 48 h"}, "OVCAR-4": {"tested_on": "OVCAR-4", "assay": "Anticancer activity against human OVCAR4 cells after 48 hrs by sulforhodamine B assay", "conditions": "Homo sapiens, OVCAR-4, 48 h"}, "[3]": {"conditions": "read-out: LC50 (the source's name)"}},
  "data": [
    {"smiles": "CCCCCCCCCCCCCCCC[n+]1ccn(C)c1.[Cl-]", "values": [
      {"measurement": "GI50", "setting": "HCT-15", "result": 1000, "unit": "nM"},
      {"measurement": "CC50", "setting": "HCT-15; [3]", "result": 4650, "unit": "nM"},
      {"measurement": "GI50", "setting": "SNB-19", "result": 1220, "unit": "nM"},
      {"measurement": "CC50", "setting": "SNB-19; [3]", "result": 9590, "unit": "nM"},
      {"measurement": "GI50", "setting": "PC-3", "result": 268, "unit": "nM"},
      {"measurement": "CC50", "setting": "PC-3; [3]", "result": 3860, "unit": "nM"},
      {"measurement": "GI50", "setting": "[1]", "result": 240, "unit": "nM"},
      {"measurement": "CC50", "setting": "[1]; [3]", "result": 764, "unit": "nM"},
      {"measurement": "GI50", "setting": "MDA-MB-435", "result": 482, "unit": "nM"},
      {"measurement": "CC50", "setting": "MDA-MB-435; [3]", "result": 6980, "unit": "nM"},
      {"measurement": "GI50", "setting": "SF-268", "result": 1020, "unit": "nM"},
      {"measurement": "CC50", "setting": "SF-268; [3]", "result": 4930, "unit": "nM"},
      {"measurement": "GI50", "setting": "M14", "result": 343, "unit": "nM"},
      {"measurement": "GI50", "setting": "NCI-H522", "result": 1010, "unit": "nM"},
      {"measurement": "GI50", "setting": "SK-MEL-5", "result": 461, "unit": "nM"},
      {"measurement": "CC50", "setting": "SK-MEL-5; [3]", "result": 4190, "unit": "nM"},
      {"measurement": "GI50", "setting": "COLO 205", "result": 343, "unit": "nM"},
      {"measurement": "CC50", "setting": "COLO 205; [3]", "result": "> 100000", "unit": "nM"},
      {"measurement": "GI50", "setting": "SK-OV-3", "result": 1270, "unit": "nM"},
      {"measurement": "CC50", "setting": "SK-OV-3; [3]", "result": "> 100000", "unit": "nM"},
      {"measurement": "GI50", "setting": "UACC-257", "result": 1120, "unit": "nM"},
      {"measurement": "GI50", "setting": "Malme-3M", "result": 549, "unit": "nM"},
      {"measurement": "GI50", "setting": "K562", "result": 190, "unit": "nM"},
      {"measurement": "CC50", "setting": "K562; [3]", "result": 3490, "unit": "nM"},
      {"measurement": "GI50", "setting": "A549", "result": 1070, "unit": "nM"},
      {"measurement": "GI50", "setting": "A498", "result": 1110, "unit": "nM"},
      {"measurement": "CC50", "setting": "A498; [3]", "result": 7390, "unit": "nM"},
      {"measurement": "GI50", "setting": "[2]", "result": 538, "unit": "nM"},
      {"measurement": "CC50", "setting": "[2]; [3]", "result": 6110, "unit": "nM"},
      {"measurement": "GI50", "setting": "HCC 2998", "result": 192, "unit": "nM"},
      {"measurement": "CC50", "setting": "HCC 2998; [3]", "result": 7290, "unit": "nM"},
      {"measurement": "GI50", "setting": "T47D", "result": 564, "unit": "nM"},
      {"measurement": "CC50", "setting": "T47D; [3]", "result": "> 100000", "unit": "nM"},
      {"measurement": "GI50", "setting": "HCT-116", "result": 349, "unit": "nM"},
      {"measurement": "CC50", "setting": "HCT-116; [3]", "result": 6220, "unit": "nM"},
      {"measurement": "GI50", "setting": "SK-MEL-28", "result": 948, "unit": "nM"},
      {"measurement": "GI50", "setting": "HOP-62", "result": 1170, "unit": "nM"},
      {"measurement": "CC50", "setting": "HOP-62; [3]", "result": 6890, "unit": "nM"},
      {"measurement": "GI50", "setting": "MDA-MB-468", "result": 92, "unit": "nM"},
      {"measurement": "GI50", "setting": "SR", "result": 100, "unit": "nM"},
      {"measurement": "CC50", "setting": "SR; [3]", "result": 4380, "unit": "nM"},
      {"measurement": "GI50", "setting": "TK-10", "result": 295, "unit": "nM"},
      {"measurement": "GI50", "setting": "NCI-H226", "result": 861, "unit": "nM"},
      {"measurement": "GI50", "setting": "MOLT-4", "result": 306, "unit": "nM"},
      {"measurement": "GI50", "setting": "IGROV-1", "result": 48, "unit": "nM"},
      {"measurement": "CC50", "setting": "IGROV-1; [3]", "result": "> 100000", "unit": "nM"},
      {"measurement": "GI50", "setting": "OVCAR-5", "result": 912, "unit": "nM"},
      {"measurement": "CC50", "setting": "OVCAR-5; [3]", "result": 7240, "unit": "nM"},
      {"measurement": "GI50", "setting": "SF-539", "result": 1340, "unit": "nM"},
      {"measurement": "GI50", "setting": "RXF 393", "result": 379, "unit": "nM"},
      {"measurement": "GI50", "setting": "OVCAR-4", "result": 594, "unit": "nM"},
      {"measurement": "CC50", "setting": "OVCAR-4; [3]", "result": 7200, "unit": "nM"}
    ]}
  ]
}
